Measured values: patent publication EP0479834B1, “COMPETITIVE ENZYME ASSAY FOR DETERMINATION OF PHOSPHOTHIOATE INSECTICIDES” (COMMONWEALTH SCIENTIFIC AND INDUSTRIAL RESEARCH ORGANISATION, priority 1989, dated 1991)

Assays:
Format in all cases: binding
[1] = tested on: Antibody F7 (phosphorothioate-specific antibody; control pesticide chlorpyrifos-methyl); assay: competition ELISA, assay format 2 (pesticide-macromolecule conjugate on the solid phase, antibody in solution); details: Antibody F7, assay format 2, control pesticide CP; 30 min antibody incubation
Experimental: The solid phase is coated with a pesticide-macromolecule conjugate. For the results listed in Table 1, the immunogen conjugate of chlorpyrifos-methyl (F7) was used. Following pretreatment to minimize non-specific binding of conjugate by treatment with a suitable protein or detergent, the sample to be analyzed is added. The grain, food or other sample may either be extracted in methanol, ethanol or other polar water-miscible solvent, or otherwise be extracted with a volatile organic solvent such as dichloromethane or acetone. The solvent may be removed by evaporation and the residue redissolved in a smaller volume of methanol. The extract or reconstituted residue is diluted in a protein and detergent - containing buffer and applied to the solid phase and antibody is added immediately. A standard is prepared in methanol and dilutions of this standard assayed simultaneously. Such antibody may either be enzyme-labelled by direct covalent association or a suitable amplification step used to detect binding of the antibody. Analysis by this technique is based on the competition between phosphorothioate in the test sample and solid phase- bound phosphorothioate, for binding to antibody in solution. There is a decrease in the binding of antibody as the concentration of organophosphate increases in the test sample; this is manifest in decreasing absorbance of the coloured enzyme product, in this example. The concentration of organophosphate may be assessed as described in assay format 1. Clean-up of the extracts was not necessary.
An antibody incubation time of 30 minutes was used, together with 20 min (2,2'-azino bis (3-ethylbenzthiazoline-6-sulfonic acid)) substrate incubation time. The overall assay time can be reduced to 5-10 minutes or increased to 18 hours for batchwise analysis of large numbers of (several hundred) samples.
The data shown in Table 1 are potencies relative to the control pesticide (determined as relative concentration yielding 50% inhibition of antibody binding). Absolute amounts of control pesticide yielding 50% inhibition of antibody binding in competition ELISA are: P9 (0.001 ng), F7 (50 ng), Pll (2 ng).

[2] = tested on: Antibody P11 (phosphorothioate-specific antibody; control pesticide pirimiphos-methyl); assay: competition ELISA, assay format 1 (antibody on the solid phase, horseradish peroxidase-labelled phosphorothioate); details: Antibody P11, assay format 1, control pesticide PY; 30 min incubation with enzyme conjugate
Experimental: (§1) The solid phase is coated with phosphorothioate-specific antibody. Preferentially the antibody is coated at 10µg/mL in 50mM sodium carbonate buffer, pH 9.6. Non-specific binding of immunoreactants is then minimized by treatment with a suitable protein or detergent, for example, 10mg/mL bovine serum albumin in 50mM sodium phosphate, pH 7.2 - 0.9% sodium chloride. The grain or food or other sample to be analyzed is extracted in neat methanol or ethanol, although other polar water-miscible solvents may be used; such as isopropanol, acetonitrile and acetone. Mixtures of water and these solvents may also be used. The grain, food or other extract is diluted five-fold in a protein and detergent-containing buffer (for example 10mg/mL bovine serum albumin or lmg/mL Teleostean fish skin gelatin in 0.05% (v/v) Tween in phosphate-buffered saline) applied to the solid phase and enzyme-labelled phosphorothioate (diluted similarly) is added immediately. A standard is prepared in methanol or ethanol and dilutions of this standard assayed simultaneously.
(§2) An incubation time of 30 min with chlorpyrifos-methyl (P9) or pirimiphos-methyl (P11) conjugated to horseradish peroxidase was used for the results shown in Table 1, together with 10 min chromogenic substrate (2,2'-azino-bis (3-ethyl benzthiazoline -6- sulfonic acid)) incubation time. The chromogen 3,3',5,5'-tetramethylbenzidine may also be used.
(§3) Analysis by this technique is based on the competition between phosphorothioate in the test sample and enzyme-labelled phosphorothioate for binding to phosphorothioate-specific antibody on the solid phase. There is a decrease in the binding of the enzyme-labelled phosphorothioate as the concentration of phosphorothioate increases in the test sample; this is manifest in decreasing absorbance of the coloured enzyme product. The concentration of phosphorothioate in an unknown sample may be determined by comparing the degree of inhibition of antibody binding caused by the addition of the sample extract with that resulting from the addition of known amounts of phosphorothioate. […]

[3] = tested on: Antibody F9 (phosphorothioate-specific antibody; control pesticide chlorpyrifos-methyl); assay: as above; details: Antibody F9, assay format 1, control pesticide CP; 30 min incubation with enzyme conjugate
Experimental: as §1, §2, §3

Row | SMILES | potencies relative to the control pesticide (relative concentration yielding 50% inhibition of antibody binding) [1] | potencies relative to the control pesticide (relative concentration yielding 50% inhibition of antibody binding) [2] | potencies relative to the control pesticide (relative concentration yielding 50% inhibition of antibody binding) [3]
1 | COP(=S)(OC)Oc1ccc([N+](=O)[O-])c(C)c1 [fenitrothion (FN), fenitrothion] | 0.01 | – | –
2 | CCOP(=S)(OCC)Oc1nc(Cl)c(Cl)cc1Cl [chlorpyrifos-ethyl] | 0.07 | – | –
3 | COP(=S)(OC)Oc1ccc([N+](=O)[O-])cc1Cl [dicapthon] | 0.01 | – | –
4 | CCOP(=S)(OCC)Oc1cc(C)nc(N(CC)CC)n1 [pirimiphos-ethyl] | – | 2.9 | –
5 | CCN(CC)c1nc(C)cc(OP(=S)(OC)OC)n1 [pirimiphos-methyl (PY), pirimiphos-methyl] | – | 1.0 | –
6 | COP(=S)(OC)Oc1ccc([N+](=O)[O-])cc1 [methylparathion] | 0.003 | – | –
7 | COP(=S)(OC)Oc1nc(Cl)c(Cl)cc1Cl [chlorpyrifos-methyl (CP), chlorpyrifos-methyl] | 1.0 | – | 1.0
